Like-named read-outs stand apart in the source and are kept apart here.
Experiments:
[1] = test system: A549 transplanted tumor (human non-small cell lung cancer cell line); assay: Example 5: Acla A on A549 transplanted tumor in nude mice; format: in vivo, BALB/c-nu nude mice; settings: A549, Jef 50 mg/kg/time intragastric, 2 times a day, 14 days, Day 20
Description: Under sterile conditions, the above tumor cells were collected in the logarithmic growth phase. A549 was injected by subcutaneous injection in an amount of 6×10 6/0.2 mL/nude mice (cell viability>90%) into the right subaxillary of the nude mice, thus establishing transplated tumor models of lung cancer in nude mice. The mice were administered from the second day after the inoculation. The experimental group was intragastrically administered at the experimentally designed amount, the negative control group was intragastrically administered with sterile water, and the positive control group is intragastrically administered with Jef. Each mouse was intragastrically administered in 0.4 ml each time and 2 times a day, at 8:00, and 14:00. The administrations were successive for 14 days. The day before administration was deemed as Day 0 and the body weight and tumor size of the mice were determined every 5 days to produce a dynamic plot on body weight and tumor growth. On Day 20, the mice were sacrificed and the tumors were taken out and weighed. The tumor inhibition rate (%) was calculated after the effect of the medicament based on a tumor inhibition rate of the control group being zero.
(§1) The values determined were presented as mean±standard error (Mean±SD). The experimental data for each group was analyzed with One-way ANOVA method in the SPSS 18.0 statistical software, and p<0.05 means that the differences are statistically significant.

[2] = test system: A549 transplanted tumor (human non-small cell lung cancer cell line); assay: Example 6: TTD and Acla A combined on A549 transplanted tumor in nude mice; format: in vivo, BALB/c-nu nude mice; settings: A549, Jef 50 mg/kg/time intragastric, 3 times a day, 10 days, Day 29
Description: (§2) Under sterile conditions, the above tumor cells were collected in the logarithmic growth phase. A549 was injected by subcutaneous injection in an amount of 1×10 7/0.2 mL/nude mice (cell viability>90%) into the right subaxillary of the nude mice, whereas HepG2 was injected by subcutaneous injection in an amount of 1×10 7/0 2 mL/nude mice (cell viability>90%) into the left subaxillary of the nude mice, thus establishing transplated tumor models of lung cancer and liver cancer respectively in nude mice. The mice were administered from the second day after the inoculation. […] Each mouse was intragastrically administered in 0.4 ml each time and 3 times a day, at 8:00, 14:00 and 20:00. The administrations were successive for 10 days. The day before administration was deemed as Day 0 and the body weight and tumor size of the mice were determined every 5 days to produce a dynamic plot on body weight and tumor growth. On Day 29, the mice were sacrificed and the tumors were taken out and weighed. The tumor inhibition rate (%) was calculated after the effect of the medicament based on a tumor inhibition rate of the control group being zero.
as §1

[3] = test system: Hep G2 transplanted tumor (human hepatoma carcinoma cell); assay: Example 6: TTD and Acla A combined on Hep G2 transplanted tumor in nude mice; format: in vivo, BALB/c-nu nude mice; settings: Hep G2, Jef 50 mg/kg/time intragastric, 3 times a day, 10 days, Day 29
Description: as §2, §1

[4] = test system: human leukemia Jurkat cells; settings: cited from earlier work
[5] = test system: peripheral blood leucocyte of a normal human being; settings: berbamine 0.5 μg/mL to 10 μg/mL; cited from earlier work

| Structure (SMILES) | Mass of tumor ([1]; Mean ± SD) | tumor inhibition rate ([1]; control = 0) | Mass of tumor ([2]; Mean ± SD) | tumor inhibition rate ([2]; control = 0) | Mass of tumor ([3]; Mean ± SD) | tumor inhibition rate ([3]; control = 0, * P < 0.05) | cell viability ([4]; berbamine 0.5 μg/mL) | cell viability ([4]; berbamine 10 μg/mL) | cytotoxic effect (in words) [5] |
| --- | --- | --- | --- | --- | --- | --- | --- | --- | --- |
| COc1cc2ncnc(Nc3ccc(F)c(Cl)c3)c2cc1OCCCN1CCOCC1 [Jef, Jefitinib] | 0.38 ± 0.37 g | −14.34% | 1.52 ± 1.00 g | −34.11% | 0.31 ± 0.10 g | 54.08* % |  |  |  |
| COc1cc2c3cc1Oc1c(OC)c(OC)cc4c1[C@@H](Cc1ccc(O)c(c1)Oc1ccc(cc1)C[C@@H]3N(C)CC2)N(C)CC4 [berbamine, 6,6′,7-trimethoxy-2,2′-dimethylberbaman-12-ol] |  |  |  |  |  |  | 93.69% | 14.85% | no evident cytotoxic effect |

From patent US20150290232A1, “DRUG COMPOSITION FOR TREATING TUMORS AND APPLICATION THEREOF” (priority 2012, published 2015)
